Reference: the kinase profiling compilation of Christmann-Franck et al. (2016)

Tests used:
Assay in all cases: radiometric filter-binding kinase assay
[1] = molecular target: CAMKK2 (human) (UniProt Q96RR4); conditions: compound 1.0 µM
[2] = molecular target: CDK2 CCNA2 (human) (UniProt P20248+P24941)
[3] = molecular target: CSK (human) (UniProt P41240); conditions: compound 1.0 µM
[4] = molecular target: CSNK1D (human) (UniProt P48730); conditions: compound 1.0 µM
[5] = molecular target: DYRK3 (human) (UniProt O43781); conditions: compound 1.0 µM
[6] = molecular target: EPHB2 (human) (UniProt P29323); conditions: compound 1.0 µM
[7] = molecular target: EPHB3 (human) (UniProt P54753)
[8] = molecular target: EPHB4 (human) (UniProt P54760)
[9] = molecular target: GSK3B (human) (UniProt P49841); conditions: compound 1.0 µM
[10] = molecular target: IGF1R (human) (UniProt P08069)
[11] = molecular target: IKBKE (human) (UniProt Q14164); conditions: compound 10.0 µM
[12] = molecular target: INSRR (human) (UniProt P14616); conditions: compound 1.0 µM
[13] = system: LCK (mouse); conditions: compound 1.0 µM; accession and sequence are those of the human protein
[14] = molecular target: MAP2K1 (human) (UniProt Q02750); conditions: compound 1.0 µM
[15] = molecular target: MAP3K7 TAB1 (human) (UniProt Q15750+O43318)
Sequence of MAP3K7 TAB1 (human) (O43318 whole entry, looked up): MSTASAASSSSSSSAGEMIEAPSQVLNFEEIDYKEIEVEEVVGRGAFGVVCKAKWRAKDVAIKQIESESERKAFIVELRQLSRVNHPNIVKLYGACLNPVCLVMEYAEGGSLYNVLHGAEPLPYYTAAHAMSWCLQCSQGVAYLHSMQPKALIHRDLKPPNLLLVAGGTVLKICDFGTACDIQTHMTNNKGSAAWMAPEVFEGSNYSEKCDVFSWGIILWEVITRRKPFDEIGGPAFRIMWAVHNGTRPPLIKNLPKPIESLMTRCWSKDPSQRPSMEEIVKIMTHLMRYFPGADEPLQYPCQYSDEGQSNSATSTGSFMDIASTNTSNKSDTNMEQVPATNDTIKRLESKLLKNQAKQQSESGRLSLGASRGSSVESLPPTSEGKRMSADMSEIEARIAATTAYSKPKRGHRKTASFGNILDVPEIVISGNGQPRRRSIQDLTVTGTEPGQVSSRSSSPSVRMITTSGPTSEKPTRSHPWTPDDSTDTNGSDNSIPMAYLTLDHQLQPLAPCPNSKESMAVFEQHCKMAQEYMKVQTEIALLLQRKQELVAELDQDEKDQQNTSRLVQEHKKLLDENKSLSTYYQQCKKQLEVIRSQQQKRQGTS
Sequence of MAP3K7 TAB1 (human) (Q15750 whole entry, looked up): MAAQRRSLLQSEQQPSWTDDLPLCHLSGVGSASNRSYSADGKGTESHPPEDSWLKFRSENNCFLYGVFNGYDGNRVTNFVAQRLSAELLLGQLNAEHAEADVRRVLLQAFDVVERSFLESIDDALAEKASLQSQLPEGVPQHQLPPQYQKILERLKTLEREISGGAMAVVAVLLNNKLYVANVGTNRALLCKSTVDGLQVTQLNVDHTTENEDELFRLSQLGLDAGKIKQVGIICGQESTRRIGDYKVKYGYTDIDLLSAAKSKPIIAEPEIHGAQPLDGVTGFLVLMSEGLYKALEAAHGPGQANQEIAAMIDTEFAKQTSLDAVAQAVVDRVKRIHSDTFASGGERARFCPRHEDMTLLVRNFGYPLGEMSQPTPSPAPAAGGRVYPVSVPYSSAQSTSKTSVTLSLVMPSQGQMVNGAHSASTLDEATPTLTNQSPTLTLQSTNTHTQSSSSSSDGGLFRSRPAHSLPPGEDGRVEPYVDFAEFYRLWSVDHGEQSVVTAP

[16] = molecular target: MAP3K9 (human) (UniProt P80192); conditions: compound 1.0 µM
[17] = molecular target: MAPK1 (human) (UniProt P28482); conditions: compound 10.0 µM
[18] = molecular target: MAPK14 (human) (UniProt Q16539)
Sequence of MAPK14 (human) (Q16539 whole entry, looked up): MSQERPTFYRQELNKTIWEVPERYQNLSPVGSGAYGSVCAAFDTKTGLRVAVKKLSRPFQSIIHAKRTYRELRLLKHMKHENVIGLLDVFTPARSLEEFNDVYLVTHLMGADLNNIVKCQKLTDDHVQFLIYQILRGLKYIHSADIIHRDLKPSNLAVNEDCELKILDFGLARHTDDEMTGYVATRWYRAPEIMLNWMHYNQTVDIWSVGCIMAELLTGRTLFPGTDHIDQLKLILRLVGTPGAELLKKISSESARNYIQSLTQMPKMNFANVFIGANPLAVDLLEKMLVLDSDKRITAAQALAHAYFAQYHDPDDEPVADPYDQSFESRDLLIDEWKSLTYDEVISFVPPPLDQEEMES

[19] = molecular target: MAPK9 (human) (UniProt P45984); conditions: compound 1.0 µM
[20] = molecular target: MAPKAPK5 (human) (UniProt Q8IW41)
[21] = molecular target: MELK (human) (UniProt Q14680); conditions: compound 1.0 µM
[22] = molecular target: MINK1 (human) (UniProt Q8N4C8); conditions: compound 10.0 µM
[23] = molecular target: MYLK (human) (UniProt Q15746)
[24] = molecular target: NEK6 (human) (UniProt Q9HC98); conditions: compound 10.0 µM
[25] = molecular target: NTRK1 (human) (UniProt P04629); conditions: compound 1.0 µM
[26] = molecular target: NUAK1 (human) (UniProt O60285)
Sequence of NUAK1 (human) (O60285 whole entry, looked up): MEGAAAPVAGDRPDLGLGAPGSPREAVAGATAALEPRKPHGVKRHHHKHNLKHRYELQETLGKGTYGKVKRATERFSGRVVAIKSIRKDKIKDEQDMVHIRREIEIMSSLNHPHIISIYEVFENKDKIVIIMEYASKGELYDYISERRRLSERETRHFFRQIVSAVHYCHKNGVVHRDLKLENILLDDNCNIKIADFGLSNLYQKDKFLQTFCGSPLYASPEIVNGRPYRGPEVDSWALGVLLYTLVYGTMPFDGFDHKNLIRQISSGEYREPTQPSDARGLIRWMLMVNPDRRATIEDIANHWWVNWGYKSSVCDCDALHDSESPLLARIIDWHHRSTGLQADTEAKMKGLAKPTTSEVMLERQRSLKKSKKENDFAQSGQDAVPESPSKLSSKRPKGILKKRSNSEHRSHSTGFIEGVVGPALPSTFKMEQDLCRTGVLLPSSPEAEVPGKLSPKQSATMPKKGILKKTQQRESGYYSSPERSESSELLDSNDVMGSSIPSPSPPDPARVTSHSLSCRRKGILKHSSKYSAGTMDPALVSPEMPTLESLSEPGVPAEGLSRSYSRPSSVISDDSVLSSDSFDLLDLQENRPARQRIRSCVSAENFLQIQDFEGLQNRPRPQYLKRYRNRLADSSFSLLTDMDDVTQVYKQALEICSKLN

[27] = system: PAK2 (human), Q13177 [T402E]; conditions: compound 1.0 µM
[28] = molecular target: PHKG1 (human) (UniProt Q16816)
[29] = molecular target: PIM1 (human) (UniProt P11309)
[30] = molecular target: PKN2 (human) (UniProt Q16513); conditions: compound 10.0 µM
[31] = system: PRKAA1 or PRKAA2 (rat); conditions: compound 1.0 µM; accession and sequence are those of the human protein
[32] = molecular target: PTK6 (human) (UniProt Q13882)
Sequence of PTK6 (human) (Q13882 whole entry, looked up): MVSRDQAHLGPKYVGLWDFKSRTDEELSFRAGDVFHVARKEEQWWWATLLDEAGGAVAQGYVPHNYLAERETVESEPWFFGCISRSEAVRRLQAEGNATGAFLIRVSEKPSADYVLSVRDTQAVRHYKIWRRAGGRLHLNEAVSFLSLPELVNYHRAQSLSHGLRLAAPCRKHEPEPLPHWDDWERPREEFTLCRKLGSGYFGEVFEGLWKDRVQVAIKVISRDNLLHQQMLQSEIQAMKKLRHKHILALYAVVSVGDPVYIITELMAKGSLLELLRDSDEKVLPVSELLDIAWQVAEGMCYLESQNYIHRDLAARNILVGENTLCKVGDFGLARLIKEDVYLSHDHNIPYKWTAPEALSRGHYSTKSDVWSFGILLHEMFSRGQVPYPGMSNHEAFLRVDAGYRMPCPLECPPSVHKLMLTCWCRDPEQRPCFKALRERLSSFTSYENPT

[33] = molecular target: RIPK2 (human) (UniProt O43353)
Sequence of RIPK2 (human) (O43353 whole entry, looked up): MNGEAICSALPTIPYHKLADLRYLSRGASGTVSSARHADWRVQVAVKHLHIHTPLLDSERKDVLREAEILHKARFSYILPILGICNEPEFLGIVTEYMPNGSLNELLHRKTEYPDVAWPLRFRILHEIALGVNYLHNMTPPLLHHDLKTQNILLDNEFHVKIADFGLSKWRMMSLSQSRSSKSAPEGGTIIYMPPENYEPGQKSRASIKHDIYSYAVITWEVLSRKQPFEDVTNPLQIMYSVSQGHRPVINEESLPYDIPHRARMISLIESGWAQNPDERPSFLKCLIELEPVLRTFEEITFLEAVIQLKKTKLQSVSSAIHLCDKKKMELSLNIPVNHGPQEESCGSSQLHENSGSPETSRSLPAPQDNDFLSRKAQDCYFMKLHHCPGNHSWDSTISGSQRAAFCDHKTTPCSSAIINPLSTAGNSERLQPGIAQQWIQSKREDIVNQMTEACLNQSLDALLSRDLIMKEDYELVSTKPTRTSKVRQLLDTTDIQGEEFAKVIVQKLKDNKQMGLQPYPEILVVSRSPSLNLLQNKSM

[34] = molecular target: RPS6KA1 KD1 KD2 (human) (UniProt Q15418); conditions: compound 1.0 µM
[35] = molecular target: RPS6KA5 KD1 KD2 (human) (UniProt O75582); conditions: compound 10.0 µM
[36] = molecular target: SIK2 (human) (UniProt Q9H0K1); conditions: compound 10.0 µM
[37] = molecular target: SRC (human) (UniProt P12931); conditions: compound 10.0 µM
[38] = molecular target: SRPK1 (human) (UniProt Q96SB4)
[39] = molecular target: STK11 CAB39 STRADA (human) (UniProt Q9Y376+Q7RTN6+Q15831)
[40] = molecular target: STK24 (human) (UniProt Q9Y6E0); conditions: compound 1.0 µM
[41] = molecular target: STK33 (human) (UniProt Q9BYT3)
Sequence of STK33 (human) (Q9BYT3 whole entry, looked up): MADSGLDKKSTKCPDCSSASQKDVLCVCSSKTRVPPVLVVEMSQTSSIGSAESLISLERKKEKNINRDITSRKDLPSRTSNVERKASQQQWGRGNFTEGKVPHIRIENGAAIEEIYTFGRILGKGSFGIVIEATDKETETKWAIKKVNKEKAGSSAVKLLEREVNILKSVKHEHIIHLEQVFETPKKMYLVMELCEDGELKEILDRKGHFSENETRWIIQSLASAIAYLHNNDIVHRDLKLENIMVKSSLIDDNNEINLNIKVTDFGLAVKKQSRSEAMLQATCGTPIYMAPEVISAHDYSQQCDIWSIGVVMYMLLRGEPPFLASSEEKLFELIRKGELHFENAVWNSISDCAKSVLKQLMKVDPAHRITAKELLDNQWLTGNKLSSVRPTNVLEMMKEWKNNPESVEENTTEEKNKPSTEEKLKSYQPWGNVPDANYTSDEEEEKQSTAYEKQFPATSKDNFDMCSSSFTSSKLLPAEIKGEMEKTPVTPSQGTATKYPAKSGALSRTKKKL

[42] = molecular target: SYK (human) (UniProt P43405)
[43] = molecular target: TEK (human) (UniProt Q02763)
Sequence of TEK (human) (Q02763 whole entry, looked up): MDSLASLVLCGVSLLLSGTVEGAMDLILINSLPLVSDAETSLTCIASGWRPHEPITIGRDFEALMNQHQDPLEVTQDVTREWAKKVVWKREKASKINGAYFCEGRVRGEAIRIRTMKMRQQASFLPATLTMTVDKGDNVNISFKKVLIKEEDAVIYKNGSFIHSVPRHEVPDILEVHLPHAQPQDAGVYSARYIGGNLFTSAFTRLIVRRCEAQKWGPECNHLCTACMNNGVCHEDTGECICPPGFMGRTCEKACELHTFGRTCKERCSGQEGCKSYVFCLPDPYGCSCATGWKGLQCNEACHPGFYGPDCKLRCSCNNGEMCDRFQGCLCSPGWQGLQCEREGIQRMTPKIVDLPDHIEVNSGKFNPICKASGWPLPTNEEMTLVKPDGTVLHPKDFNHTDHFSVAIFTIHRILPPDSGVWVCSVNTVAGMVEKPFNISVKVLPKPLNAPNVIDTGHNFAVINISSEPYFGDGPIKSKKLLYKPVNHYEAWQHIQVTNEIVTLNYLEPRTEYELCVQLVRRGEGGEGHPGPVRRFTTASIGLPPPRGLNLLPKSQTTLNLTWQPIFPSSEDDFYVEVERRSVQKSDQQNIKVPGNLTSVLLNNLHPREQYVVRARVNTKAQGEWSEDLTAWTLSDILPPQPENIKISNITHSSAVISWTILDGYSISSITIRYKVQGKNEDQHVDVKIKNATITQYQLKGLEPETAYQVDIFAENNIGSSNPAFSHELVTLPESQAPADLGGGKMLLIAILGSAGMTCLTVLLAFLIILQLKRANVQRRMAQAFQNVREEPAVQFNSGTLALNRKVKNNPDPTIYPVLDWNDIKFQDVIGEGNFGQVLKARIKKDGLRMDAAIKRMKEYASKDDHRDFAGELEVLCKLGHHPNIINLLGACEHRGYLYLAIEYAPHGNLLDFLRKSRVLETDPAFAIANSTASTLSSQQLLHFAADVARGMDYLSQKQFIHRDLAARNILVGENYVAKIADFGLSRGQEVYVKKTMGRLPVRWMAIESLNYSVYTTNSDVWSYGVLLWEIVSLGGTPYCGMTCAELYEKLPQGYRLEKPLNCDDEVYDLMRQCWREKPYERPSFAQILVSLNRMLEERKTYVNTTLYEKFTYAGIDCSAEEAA

[44] = molecular target: TSSK1B (human) (UniProt Q9BXA7); conditions: compound 1.0 µM
[45] = molecular target: WNK1 (human) (UniProt Q9H4A3)
[46] = molecular target: YES1 (human) (UniProt P07947); conditions: compound 1.0 µM
[47] = molecular target: ZAP70 (human) (UniProt P43403); conditions: compound 1.0 µM

O=C(Nc1cccnc1)c1cc(-c2ccnc(F)c2)ccc1OCc1ccccc1
residual activity [1]: 71% | residual activity ([2]; compound 1.0 µM): 113% | residual activity ([2]; compound 10.0 µM): 117% | residual activity [3]: 104% | residual activity [4]: 107% | residual activity [5]: 101% | residual activity [6]: 123% | residual activity ([7]; compound 1.0 µM): 121% | residual activity ([7]; compound 10.0 µM): 113% | residual activity ([8]; compound 1.0 µM): 118% | residual activity ([8]; compound 10.0 µM): 108% | residual activity [9]: 119% | residual activity ([10]; compound 1.0 µM): 123% | residual activity ([10]; compound 10.0 µM): 117% | residual activity [11]: 102% | residual activity [12]: 76% | residual activity [13]: 113% | residual activity [14]: 77% | residual activity ([15]; compound 1.0 µM): 108% | residual activity ([15]; compound 10.0 µM): 101% | residual activity [16]: 69% | residual activity [17]: 115% | residual activity ([18]; compound 1.0 µM): 101% | residual activity ([18]; compound 10.0 µM): 102% | residual activity [19]: 107% | residual activity ([20]; compound 1.0 µM): 109% | residual activity ([20]; compound 10.0 µM): 114% | residual activity [21]: 102% | residual activity [22]: 76% | residual activity ([23]; compound 1.0 µM): 32% | residual activity ([23]; compound 10.0 µM): 23% | residual activity [24]: 65% | residual activity [25]: 80% | residual activity ([26]; compound 1.0 µM): 31% | residual activity ([26]; compound 10.0 µM): 58% | residual activity [27]: 116% | residual activity ([28]; compound 1.0 µM): 78% | residual activity ([28]; compound 10.0 µM): 75% | residual activity ([29]; compound 1.0 µM): 102% | residual activity ([29]; compound 10.0 µM): 109% | residual activity [30]: 79% | residual activity [31]: 90% | residual activity ([32]; compound 1.0 µM): 103% | residual activity ([32]; compound 10.0 µM): 101% | residual activity ([33]; compound 1.0 µM): 59% | residual activity ([33]; compound 10.0 µM): 56% | residual activity [34]: 69% | residual activity [35]: 120% | residual activity [36]: 111% | residual activity [37]: 160% | residual activity ([38]; compound 1.0 µM): 61% | residual activity ([38]; compound 10.0 µM): 69% | residual activity ([39]; compound 1.0 µM): 97% | residual activity ([39]; compound 10.0 µM): 105% | residual activity [40]: 101% | residual activity ([41]; compound 1.0 µM): 64% | residual activity ([41]; compound 10.0 µM): 66% | residual activity ([42]; compound 1.0 µM): 115% | residual activity ([42]; compound 10.0 µM): 125% | residual activity ([43]; compound 1.0 µM): 119% | residual activity ([43]; compound 10.0 µM): 133% | residual activity [44]: 103% | residual activity ([45]; compound 1.0 µM): 104% | residual activity ([45]; compound 10.0 µM): 106% | residual activity [46]: 120% | residual activity [47]: 103%
